Assay results published in patent publication US7265156B2 (Dospharma, priority 2000, dated 2007).
Where a name gives a salt, the structure may show the parent alone. Read-outs that look alike come from different tables or passages of the source. Values belong to the molecule of their own block, whether it stands above or below them.

How the values were obtained:
[1] = test system: rats made diabetic with fructose; test: Anti-diabetic activity in rats made diabetic with fructose at 10% in the drinking water; assay type: in vivo, rat; settings: for 21 days fructose (glycemia mM) / Control (glycemia mM): rats; for 21 days fructose (glycemia mM): group baseline after 21 days fructose, before treatment; for Control (glycemia mM): group baseline before fructose and before treatment
Protocol: The second model is prepared by administering fructose at 10% in the drinking water of the rats for three weeks. An insulin resistance develops, followed by diabetes of […] type. […]

NIDDM patients = settings: humans, simultaneous administration, arginine 30 g intravenous over 30 min; cited from earlier work
[2] = 50 mg/kg
[3] = test system: streptozotocine model and fructose model; settings: rats, 50 mg/kg; cited from earlier work
[4] = test system: rats made diabetic with streptozotocin; test: Anti-diabetic activity in rats made diabetic with streptozotocin; assay type: in vivo, rat; settings: streptozotocin rats (50 mg/kg IP); for hyperglycemia after treatment: 30 mg/kg; for hyperglycemia before treatment: baseline of the 30 mg/kg group
Description: From the pharmacological point of view, the anti-diabetic activity was studied on two models of rats made diabetic.

[5] = test system: hamsters made diabetic by fructose; test: Anti-diabetic activity in hamsters made diabetic by fructose for three months; assay type: in vivo, hamster; settings: for 2 weeks treatment (glycemia mg/dl): hamsters, fructose 3 months, 10 mg/kg/day, fructose only 143, control without fructose 91 mg/dl
Protocol: The anti diabetic activity was also tested on hamsters made diabetic by the administration of fructose for three months. […]

[6] = In vitro assay of cleavage in an intestinal juice; assay type: in vitro ADME; settings: 37° C., arginine hemisuccinimide part not modified
Protocol: A preparation of intestinal juice containing trypsin, peptidases, lipase, amylase and all the other enzymes of the exocrine pancreas is used. This assay is validated beforehand using calibration compounds. A known amount (of the order of one microgram) of the compound A′V′C′ is mixed together with a known amount of intestinal juice (the trypsin and lipase contents of which are controlled). The reaction mixture is kept at 37° C. for one hour. This time is compatible with the intestinal transit. Samples are taken every 15 min, and the products A and C are detected and their concentration measured using HPLC coupled to a UV detector, or a mass spectrometer if it is not possible to use UV. The columns used depend on the nature of A and of C, but are generally ion-exchange columns, because of the presence of released alcohol, amine or acid forms. […] This assay can be coupled with determination of the release of A (biguanide), C (transporter) and V in the gastric juice, using exactly the same principle but replacing the intestinal juice with gastric juice.
A second assay is carried out on a rat hepatocyte culture, according to the method described above.

[7] = test system: microcirculation of the hamster cheek pouch; test: Study on the cheek pouch of the hamster (microcirculation); assay type: in vivo; settings: vasodilatory action of arginine and action of metformin on vasomotion

Molecule: N=C(N)NCCC[C@H](N)C(=O)O [arginine]
4 days treatment (glycemia mM) ([1]; fructose rats, 30 mg/kg/day): 14.37 ± 0.20 mM
8 days treatment (glycemia mM) ([1]; fructose rats, 30 mg/kg/day): 12.56 ± 0.89 mM
12 days treatment (glycemia mM) ([1]; fructose rats, 30 mg/kg/day): 11.98 ± 0.71 mM
21 days treatment (glycemia mM) ([1]; fructose rats, 30 mg/kg/day): 10.73 ± 1.27 mM
21 days fructose (glycemia mM) [1]: 13.24 ± 0.62 mM
Control (glycemia mM) [1]: 6.87 ± 0.14 mM
effect on the antihyperglycemic effects of metformin (NIDDM patients): not modified

concentration peak ([2]; rat, in vivo, po): 3.9 µg/mL
time of concentration peak ([2]; rat, in vivo, po): ≤ 90 min
Molecule: CN(C)C(=N)N=C(N)N [metformin hydrochloride]
activity on conventional models of non-insulin dependent diabetes [3]: active

Molecule: CN(C)C(=N)NC(=N)N [metformin, N,N-dimethylimidodicarbonimidic diamide]
hyperglycemia after treatment [4]: 9.85 mM
hyperglycemia before treatment [4]: 12.11 mM
4 days treatment (glycemia mM) ([1]; fructose rats, 30 mg/kg/day): 13.41 ± 0.52 mM
8 days treatment (glycemia mM) ([1]; fructose rats, 30 mg/kg/day): 10.83 ± 0.64 mM
12 days treatment (glycemia mM) ([1]; fructose rats, 30 mg/kg/day): 9.78 ± 0.72 mM
21 days treatment (glycemia mM) ([1]; fructose rats, 30 mg/kg/day): 9.87 ± 0.68 mM
21 days fructose (glycemia mM) [1]: 12.52 ± 0.52 mM
Control (glycemia mM) [1]: 6.94 ± 0.13 mM
2 weeks treatment (glycemia mg/dl) [5]: 112 mg/dL
effect on the hemodynamic and hemorheological action of arginine (NIDDM patients): potentiates

Molecule: arginine hemisuccinimide-metformin hemisuccinate
release of the metformin [6]: Immediate release
hyperglycemia after treatment [4]: 7.56 mM
hyperglycemia before treatment [4]: 12.66 mM
4 days treatment (glycemia mM) ([1]; fructose rats, 70 mg/kg/day): 10.92 ± 0.44 mM
8 days treatment (glycemia mM) ([1]; fructose rats, 70 mg/kg/day): 9.13 ± 0.64 mM
12 days treatment (glycemia mM) ([1]; fructose rats, 70 mg/kg/day): 8.43 ± 0.52 mM
21 days treatment (glycemia mM) ([1]; fructose rats, 70 mg/kg/day): 7.76 ± 0.78 mM
anti-diabetic activity compared with metformin alone ([1]; fructose rats, equivalent dose of metformin base): significantly more active
21 days fructose (glycemia mM) [1]: 12.14 ± 0.28 mM
Control (glycemia mM) [1]: 6.84 ± 0.06 mM
anti-diabetic activity compared with metformin on its own ([5]; fructose hamsters, equal dose of 10 mg/kg/day, two weeks of treatment): significantly more active
2 weeks treatment (glycemia mg/dl) [5]: 93 mg/dL
effects on the microcirculation [7]: reproduces at least the effects of the two active principles
time of concentration peak ([2]; rats, oral, plasma metformin): 60 min
